This is an account of results in US11383003B2, “Water soluble farnesol analogs and their use” (Kimberly-Clark Worldwide, Inc., priority 2012, dated 2022).

Series [1] relates to C. albicans SC5314. The series can be described thus: Germ tube formation (GTF %) in vitro screening, GlcNAc-triggered differentiation assay. The series is classed as cell-based, Candida albicans. The procedure:
Based on the results in FIG. 3, single cell suspensions of SC5314 was prepared as follows. Stock culture of C. albicans SC5314 was streaked onto YPD agar (YPDA) and incubated at 30° C. overnight. Single colonies were subcultured in YPD broth (YPDB) and incubated 30° C., 200 rpm overnight. Overnight culture in YPDB was subcultured in YPD broth again and incubated 30° C., 200 rpm 48 h. Cells were collected by centrifugation (4000 g 10 min) at 4° C., washed three times with sterile water, and then resuspended in sterile water a final concentration of 10^9 colony-forming unit/ml (cfu/ml). The suspension were stored at 4° C. at least 1 d, then subcultured into YPDB to a final concentration of 10^6 cfu/ml. After 48 h incubation, cell suspension was examined under the microscope for single cell percentage. When the single cell percentage exceeded 80%, cells were collected and washed three times with water, then resuspended in water to a final concentration of 10^9 cfu/ml, and stored at 4° C. for no more than a month.
Two approaches were taken to determine the percentage of cells with germ tubes formed (GTF %). One way was to count the total cells at the start of incubation, and count the ungerminated cells after incubation, then calculate the GTF % as (1—ungerminated cells/total cells at 0 h)*100. Another way was to store the samples at 15° C. for 20 h after incubation, then count the germinated cells and total cells after disaggregation, then calculated the GTF % as (germinated cells/total cells after storage)*100. […] Therefore, for practical purposes, the GTF % was determined by the first method, that is, GTF %=(1—ungerminated cells/total cells at 0 h)*100, for the in vitro screening discussed herein.
A screening medium, containing 11 mM imidazole buffer, 3 mM MgSO4, and 2.6 mM N-acetyl-D-glucosamine (GlcNAc) has been used to study the effect of farnesol analogs on the germ tube formation of C. albicans. Here, the germ tube formation of C. albicans in modified screening media was assessed with various concentrations of imidazole buffer (10 mM, 30 mM and 50 mM) and MgSO4 (0.5 mM, 1.5 mM and 3 mM). […] It took 2 h to 3 h for the GTF % to reach above 80%. For practical purposes, the screening medium, containing 11 mM imidazole buffer, 0.5 mM MgSO4, and 2.6 mM N-acetyl-D-glucosamine (GlcNAc) was adopted for in vitro screening the quorum sensing inhibitory effect of farnesol compounds.
The in vitro screening assay was based on the N-acetylglucosamine (GlcNAc)-triggered differentiation assay (Hornby et al., “Quorum sensing in the dimorphic fungus Candida albicans is mediated by farnesol;” Applied and Environmental Microbiology 67:2982-2992; 2001), which included 0.56 ml of 0.1 M imidazole buffer (pH 6.5), 0.15 ml of 0.1 M MgSO4, 0.13 ml of 0.1 M GlcNAc, and 4.16 ml of sterilized water. Bioassays of quorum sensing candidates were conducted by the addition of the chemical, as a solution in 100% methanol, to the bioassay media; the final concentration of methanol was no greater than 1%.

Series [2] deals with C. elegans glp4; sek1 infected with C. albicans SC5314. Kind of series: Death rate of C. elegans glp4; sek1 infected with C. albicans SC5314, 96 well plates. Particulars: initial screening. Format: in vivo, Caenorhabditis elegans. The procedure:
Caenorhabditis elegans glp4; sek1 was used as the model for […]. Breger et al. (Breger, J.; Fuchs, B. B.; Aperis, G.; Moy, T. I., Ausubel, F. M., Mylonakis, E.; “Antifungal chemical compounds identified using a C. elegans pathogenicity assay.” PLoS Pathogens 3: 168-178; 2007) reported that the glp-4 mutation rendered the strain incapable of producing progeny at 25° C., and the sek-1 mutation enhanced the sensitivity of the strain to various pathogens, thereby decreasing the time for screening assays. It was observed that no progenies was produced by the Caenorhabditis elegans glp4; sek1 strain after 3 d incubation at 25° C.
The synchronization of C. elegans was achieved by collecting the eggs and arresting the larvae at L1 stage. The commonly used bleach treatment was able to release the eggs from the adult worms. However, it was observed that the released eggs were not always able to hatch after treated with sodium hypochlorite (0.2, 0.3, 0.4, 0.5, 0.7 or 1%) for 3-5 min. A modified egg laying method was developed to synchronize worms to L1 stage. In brief, stock cultures of C. elegans glp4; sek1, maintained on Nematode Growth Media plates (NGM plates), were subcultured onto NGM plates with OP 50 and incubated at 15° C. for 6-9 days. Then a chunk (1 cm^2) of agar with gravid adults was subcultured again onto NGM plates with OP50 and incubated at 15° C. After incubation of 3-7 days, the worms were gently washed off with 3 ml of M 9 buffer on the rotating platform (100 rpm). The plate was tilted on its lid to allow the liquid and worms drain to one side of the plate. The liquid and worms were aspirated off. The plate was washed again with M9 buffer three more times to remove OP50 as much as possible. After washing, the plate was incubated at 25° C. overnight to let the eggs hatch overnight. Since there was no OP50, the larvae were arrested at the L1 stage. The live C. elegans glp4; sek1 was quite curvy; whereas the dead C. elegans glp4; sek1 tended to be straight, and in most cases the dead worms with the hyphae of C. albicans pieced through the body. The curvy shape and movement after shaking were used as the criteria for live.
The In vitro screening assay, based on the method of Tampakakis et al (Tampakakis, E.; Okoli, I.; Mylonakis, E.; “A C. elegans-based, whole animal, in vivo screen for the identification of antifungal compounds.” Nature Protocols 3:1925-1931; 2008), is described as follows:
L1 worms, which were prepared by the modified egg-laying method, were collected by centrifugation at 675 g for 30 s at room temperature, and the supernatant was removed. Worms were resuspended in M 9 buffer and inoculated on NGM agar plates with OP50, ˜1000 worms per plate. After 2-3 days incubation at 25° C., the worms were washed off with M 9 buffer for the […] assay.
The control were worms fed on OP50.

Another series deals with C. elegans glp4; sek1. Kind of series: Toxicity: death rate of C. elegans glp4; sek1 fed on E. coli OP50. The procedure:
The toxicity of the selected compounds/products were tested using the C. elegans glp4; sek1 fed on E. coli OP50 (Table 5).
Stock cultures of C. albicans SC 5314 was subcultured into 3 ml of YPD broth and incubated at 30° C. Then the overnight culture in broth was spread onto YPD agar, and incubated at 30° C. The 24 h old lawn of SC5314 was used to feed worms for 2 h at 25° C. The control were worms fed on OP50.
The worms were washed off the YPD plates and washed twice with M9 buffer. The worms were resuspended in screening media, M9 buffer with 0.3% Tween 80. The worm suspension (50 μl) was dispensed into the wells of 96-well plates, 20-30 worms/well. Aliquots (50 μl) of compounds in screening media were added to wells, 5 wells each compound. The 96 well plates were incubated at 25° C. for up to 5 days. Live and dead worms were counted during incubation, and the death rates of worms were calculated.

In series [3] the test system is C. albicans SC5314. Kind of series: Effect of quorum sensing molecules on lag phase/growth of C. albicans in YPD broth. Format: cell-based, Candida albicans. Particulars: 100 μM, 37° C., 6 h.
The conditions of series [4]: cited from earlier work.

On to `CC(C)=CCC/C(C)=C/CC/C(C)=C/CO` [E,E-farnesol, reference compound], for which the “GTF % (mean ± SEM, n = 2)” value in the series with C. albicans SC5314 [1] (100 μM, * one replicate) came out at 44.0 ± 3.1%; in the series on C. albicans SC5314 [1] (200 μM) it was 18.4 ± 2.9%. Moreover, the “% change in the death rate compared to the control” value was −4% in series [2] (0.4 mM, day 1); −16% in series [2] (0.4 mM, day 4); −19% in series [2] (0.4 mM, day 5); −12% in series [2] (1 mM, day 1); 14% in series [2] (1 mM, day 4); 10% in series [2] (1 mM, day 5). The “% change in the death rate compared to the control” value in series [2] (2 mM, day 1) was −8%; in series [2] (2 mM, day 4), 19%; in series [2] (2 mM, day 5), 8%; in series [2] (3 mM, day 1), −21%; in series [2] (3 mM, day 4), 23%; in series [2] (3 mM, day 5) it was 12%. Besides, the “effect on death rate of infected C. elegans (in words)” value is given as “reduced the death rate slightly” in series [2] (0.4 mM) and “resulted in higher death rate of the worm” in series [2] (higher concentration (above 0.4 mM)). The “Death rate (%)” value with C. elegans glp4; sek1 (2 mM, worms fed on E. coli OP50, 25° C.) was found to be 7%. Besides, the “toxicity to C. elegans fed on E. coli OP50 (in words)” value in the series on C. elegans glp4; sek1 (in vivo) is “slightly higher than the control”. In addition, the “effect on the growth of C. albicans SC5314 (in words)” value with C. albicans SC5314 [3] was “little effect on the growth”. For the same compound, the “solubility in water (in words)” value in series [4] is recorded as “insoluble in water”.
